Results from patent US8372836B2, “Spray dried formulation” (Bend Research, Inc., priority 2006, dated 2013).
Values after ≈ are worked out from the molar mass of the structure shown. Where two headings read alike, the source gives them in different places.

How the values were obtained:
[1] = Solubility in volatile organic solvents; type: physicochemical; conditions: for solubility: organic solvent or mixture
From the text: The drug is poorly soluble in volatile organic solvents. By “volatile organic solvent” is meant a solvent selected from the group consisting of acetone, methanol, tetrahydrofuran, ethyl acetate, mixtures of any one of these with water, and mixtures of these with each other. […] As used herein, the solubility is assumed to be measured at ambient temperature and pressure.

[2] = Aqueous solubility of neutral form of drug (MFD or PBS solution, pH 6.5); type: physicochemical
Experimental: Solubility may be measured at 25° C. in water or a phosphate buffered saline (PBS) solution adjusted to a pH between 6 and 7.
An appropriate PBS solution is an aqueous solution comprising 20 mM sodium phosphate (Na2HPO4), 47 mM potassium phosphate (KH2PO4), 87 mM NaCl, and 0.2 mM KCl, adjusted to pH 6.5 with NaOH. An appropriate MFD solution is the same PBS solution wherein there is also present 7.3 mM sodium taurocholic acid and 1.4 mM of 1-palmitoyl-2-oleyl-sn-glycero-3-phosphocholine. In particular, a composition of the present invention may be dissolution-tested by adding it to MFD or PBS solution and agitating to promote dissolution.

Acidic pKa = type: physicochemical; conditions: for pKa: distilled water
From the text: Here, the term pKa is used in its traditional form, the pKa being the negative logarithm of the acid ionization constant.

[3] = In vitro dissolution test of Drug 1 dispersions in MFD solution; type: physicochemical; conditions: 37° C.
Experimental: For these tests, suspensions were formed by adding a sufficient quantity of the dispersions of Example 1 or Example 2 to water containing 0.5 wt % Methocel Type A such that each suspension contained 7.2 mgA/mL Drug 1. Next, a 50 μL sample of each suspension was added to microcentrifuge tubes in duplicate. […] HPLC analysis was performed using an Zorbax RX-C18 4.6×75 mm […] column, with a mobile phase of 63/37 v/v aqueous 0.1 wt % trifluoroacetic acid/acetonitrile, and UV absorbance measured at 220 nm.
The concentrations of dissolved Drug 1 obtained in these samples were used to determine the maximum dissolved concentration of Drug 1 in solution during the first ninety minutes of the test (MDC90), the area under the concentration-versus-time curve during the initial ninety minutes (“AUC90”), and the concentration of Drug 1 at 1200 minutes (“C1200”).

[4] = In vitro dissolution test of Drug 2 dispersion in MFD solution; type: physicochemical; conditions: 37° C.
Experimental: Next, a 50 μL sample of this suspension was added to microcentrifuge tubes in duplicate. The tubes were placed in a 37° C. temperature-controlled chamber, and 1.75 mL MFD solution was added to each respective tube. […] The samples were quickly mixed using a vortex mixer for about 60 seconds. The samples were centrifuged at 13,000 G at 37° C. for 1 minute. The resulting supernatant solution was then sampled and diluted 1:6 (by volume) with methanol and then analyzed by high-performance liquid chromatography (HPLC). HPLC analysis was performed using an Agilent RX-C18 4.6×75 mm 3.5 μM column, with a mobile phase of 65/35 v/v 0.1 wt % trifluoroacetic acid/acetonitrile, and UV absorbance measured at 220 nm. The contents of each respective tube were mixed on the vortex mixer and allowed to stand undisturbed at 37° C. until the next sample was taken. Samples were collected at 4, 10, 20, 40, 90, and 1200 minutes.

[5] = In vitro dissolution test of Drug 3 dispersion in MFD solution; type: physicochemical; conditions: dissolved Drug 3, initial 90 min; MFD solution pH 6.5, 37° C., 200 μgA/mL dosed
[6] = dissolved Drug 3; dispersion pre-suspended in 0.5 wt % Methocel A + 15 mg/mL HPMCAS-HF in PBS, then MFD; 200 μgA/mL dosed; Control 3 as in Example 5 test
Experimental: The test was run in duplicate. The tubes were placed in a 37° C. temperature-controlled chamber, and 1.8 mL MFD solution at pH 6.5 and 290 mOsm/kg, was added to each respective tube. The samples were quickly mixed using a vortex mixer for about 60 seconds. The samples were centrifuged at 13,000 G at 37° C. for 1 minute. The resulting supernatant solution was then sampled and diluted 1:6 (by volume) with methanol and analyzed by high-performance liquid chromatography (HPLC). HPLC analysis was performed using a Waters Symmetry C8 column. The mobile phase consisted of 45% 20 mM KH2PO4, adjusted to pH 3, 30% acetonitrile, and 25% methanol. UV absorbance was measured at 270 nm. The contents of each tube were mixed on the vortex mixer and allowed to stand undisturbed at 37° C. until the next sample was taken. Samples were collected at 4, 10, 20, 40, 90, and 1200 minutes.
The solution was then analyzed for dissolved Drug 3 concentration versus time, as previously described.

| Compound | solubility ([1]; acetone, read-out: solubility in acetone) [µg/mL] | solubility in methanol ([1]; crystalline neutral form, methanol) | solubility ([1]; methanol, read-out: solubility in methanol) [µg/mL] | solubility ([2]; fassif, MFD solution pH 6.5, read-out: solubility in a pH 6.5 MFD solution) [µg/mL] | pKa (Acidic pKa) | C1200 ([3]; Drug 1 concentration at 1200 minutes) [µg/mL] | MDC90 ([3]; dissolved Drug 1, first 90 min, 200 μgA/mL dosed) [µg/mL] | AUC90 ([3]; dissolved Drug 1, initial 90 min, 200 μgA/mL dosed) [µg·min/mL] | C1200 ([4]; Drug 2 concentration at 1200 minutes) [µg/mL] | AUC90 ([4]; dissolved Drug 2, initial 90 min, 200 μgA/mL dosed) [µg·min/mL] | solubility ([1]; THF, 25° C., neutral form, read-out: solubility in THF at 25° C.) [µg/mL] | solubility ([1]; acetone, 25° C., neutral form, read-out: solubility in acetone at 25° C.) [µg/mL] | solubility ([1]; methanol, 25° C., neutral form, read-out: solubility in methanol at 25° C.) [µg/mL] | AUC90 [5] [min*μgA/mL] | MDC90 [5] [μgA/mL] | AUC90 [6] [min*μgA/mL] | MDC90 [6] [μgA/mL] | solubility ([2]; phosphate buffered saline, aqueous buffer, PBS pH 6.5, read-out: solubility in phosphate buffered saline solution at pH of 6.5) [µg/mL] | acidic pKa (Acidic pKa) |
| --- | --- | --- | --- | --- | --- | --- | --- | --- | --- | --- | --- | --- | --- | --- | --- | --- | --- | --- | --- |
| Nc1nc(C(=O)NCC2CC2)nc2c1[nH]c(=O)n2Cc1ccccc1 [Drug 1, 6-amino-9-benzyl-8-oxo-8,9-dihydro-7H-purine-2-carboxylic acid cyclopropylmethyl-amide] | 25 (≈ 73.9 µM) | about 0.059 mgA/mL | 59 (≈ 174 µM) | ~3 (≈ 8.87 µM) | 7.3 | <0.1 | 1 | <88 |  |  |  |  |  |  |  |  |  |  |  |
| Nc1nc(C(F)(F)F)cc2c1[nH]c(=O)n2Cc1ccccc1 [Drug 2, 4-amino-1-benzyl-6-trifluoromethyl-1,3-dihydro-imidazo[4,5-c]pyridine-2-one] |  |  |  |  | 11.3 |  |  |  | 1.0 | 44 |  |  |  |  |  |  |  |  |  |
| Cc1c(S(=O)(=O)c2ccc(=O)[nH]n2)oc2ccc(Cl)cc12 [Drug 3, 6-(5-chloro-3-methyl-benzofuran-2-sulfonyl)-2H-pyridazin-3-one] |  |  |  |  |  |  |  |  |  |  | ~12000 (≈ 37000 µM) | ~4700 (≈ 14500 µM) | ~1500 (≈ 4620 µM) | 540 | 8 | 540 | 8 | < 1 | 6.9 |
